Results on 30 compounds are retold here after patent US20240116948A1, “PYRIDO OXAZINE DERIVATIVES AS ALK5 INHIBITORS” (CHIESI FARMACEUTICI S.P.A., priority 2020, published 2024).

Where only a bound is given, the exact number is not on record here.

For the first experiment, the target named is human ALK5 (Homo sapiens (Human), UniProt P36897). In words: ADP-GLO Kinases assay, inhibition of ALK5 kinase activity. The experiment is classed as biochemical. As to conditions: Table 12; compounds classified in term of potency; ATP at Km, 25° C.; read-out: ALK5 IC50. On the procedure: The enzymatic activity of compounds of the present invention was monitored measuring the formation of ADP using the ADP-GLO Kinases assay. Following the incubation of the purified enzyme, a substrate and ATP, the produced ADP was converted into ATP, which in turn was converted into light by Ultra-Glo Luciferase. The luminescent signal positively correlated with ADP amount and kinase activity. Briefly, the kinase reaction was performed by incubating 2.6 nM of the purified, commercially available human ALK5 (recombinant TGF 31 N-term GST-tagged, 80-end), a final concentration of TGFβ1 peptide 94.5 μM (Promega, T36-58) and ultra-pure ATP (Promega V915B). The ATP concentration was set at the Km value (concentration of substrate which permits the enzyme to achieve half maximal velocity (Vmax)) of ALK5 (5 μM). All reactions/incubations were performed at 25° C. Compound and ALK5 kinase were mixed and incubated for 15 mins. Reactions were initiated by addition of ATP at a final concentration in the assay of […]. After an incubation of 150 min, the reaction was stopped, and ADP production detected with ADP-Glo kit according to manufacturer's indications. The assay was performed in 384-well format and was validated using a selection of reference compounds that was tested in 11 point concentration-response curve.
Sequence of human ALK5 (P36897 80-503 limits assumed): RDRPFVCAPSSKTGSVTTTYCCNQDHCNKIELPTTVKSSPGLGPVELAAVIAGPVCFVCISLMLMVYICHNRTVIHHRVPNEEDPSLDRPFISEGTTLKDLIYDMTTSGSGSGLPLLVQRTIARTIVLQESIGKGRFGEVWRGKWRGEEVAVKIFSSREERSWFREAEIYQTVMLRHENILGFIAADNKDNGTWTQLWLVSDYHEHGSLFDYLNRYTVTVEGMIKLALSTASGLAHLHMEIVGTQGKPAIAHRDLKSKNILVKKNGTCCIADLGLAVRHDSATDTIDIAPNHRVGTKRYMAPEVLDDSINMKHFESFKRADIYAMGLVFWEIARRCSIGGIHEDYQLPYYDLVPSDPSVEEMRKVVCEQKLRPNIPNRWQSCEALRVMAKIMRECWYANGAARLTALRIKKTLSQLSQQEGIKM
Compounds of the examples C1 and C2 were tested in the same in vitro assay described above.
(ADP-Glo first removes unused ATP, then detects ADP through luciferase.)
As for `CN(C)CC(=O)Nc1cncc(-c2cc(-c3cc(Cl)ccc3F)nc3c2OCCN3)c1` [Example 15, N-{5-[6-(5-chloro-2-fluorophenyl)-2H,3H,4H-pyrido[3,2-b][1,4]oxazin-8-yl]pyridin-3-yl}-2-(dimethylamino)acetamide], the IC50 was in the range of 5 to 10 nM.

Turning to `O=C(CCN(CCO)CCO)Nc1cncc(-c2cc(-c3cc(Cl)ccc3F)nc3c2OCCN3)c1` [Example 43, 3-[bis(2-hydroxyethyl)amino]-N-{5-[6-(5-chloro-2-fluorophenyl)-2H,3H,4H-pyrido[3,2-b][1,4]oxazin-8-yl]pyridin-3-yl}propanamide], the IC50 lay in the range of 1 to 5 nM.

On to `Fc1ccc(Cl)cc1-c1cc(-c2cncc(OC3CCOC3)c2)c2c(n1)NCCO2` (centres unmarked) [Example 36, 3-[6-(5-chloro-2-fluorophenyl)-2H,3H,4H-pyrido[3,2-b][1,4]oxazin-8-yl]-5-(oxolan-3-yloxy)pyridine], for which the IC50 was 1 to 5 nM.

As to `Fc1ccc(Cl)cc1-c1cc(-c2cccnc2)c2c(n1)NCCO2` [Example 1, 3-[6-(5-chloro-2-fluorophenyl)-2H,3H,4H-pyrido[3,2-b][1,4]oxazin-8-yl]pyridine], the IC50 is 5 to 10 nM.

As to `Fc1ccc(Cl)cc1-c1cc(-c2cnc3[nH]cnc3c2)c2c(n1)NCCO2` [Example 14, 6-(5-chloro-2-fluorophenyl)-8-{3H-imidazo[4,5-b]pyridin-6-yl}-2H,3H,4H-pyrido[3,2-b][1,4]oxazine], the IC50 was in the range of 5 to 10 nM.

Consider `O=C(CCN1CCOCC1)Nc1cncc(-c2cc(-c3cc(Cl)ccc3F)nc3c2OCCN3)c1` [Example 9, N-{5-[6-(5-chloro-2-fluorophenyl)-2H,3H,4H-pyrido[3,2-b][1,4]oxazin-8-yl]pyridin-3-yl}-3-(morpholin-4-yl)propanamide], for which the IC50 is 1 to 5 nM.

With `CN(C)CCOC(=O)c1cncc(-c2cc(-c3cc(Cl)ccc3F)nc3c2OCCN3)c1` [Example 24, 2-(dimethylamino)ethyl 5-[6-(5-chloro-2-fluorophenyl)-2H,3H,4H-pyrido[3,2-b][1,4]oxazin-8-yl]pyridine-3-carboxylate], the IC50 is 1 to 5 nM.

As for `CN1CCN(CCC(=O)Nc2cncc(-c3cc(-c4cc(Cl)ccc4F)nc4c3OCCN4)c2)CC1=O` [Example 46, N-{5-[6-(5-chloro-2-fluorophenyl)-2H,3H,4H-pyrido[3,2-b][1,4]oxazin-8-yl]pyridin-3-yl}-3-(4-methyl-3-oxopiperazin-1-yl)propanamide], the IC50 was in the range of 5 to 10 nM.

As to `NC(=O)c1cncc(-c2cc(-c3cc(Cl)ccc3F)nc3c2OCCN3)c1` [Example 6, 5-[6-(5-chloro-2-fluorophenyl)-2H,3H,4H-pyrido[3,2-b][1,4]oxazin-8-yl]pyridine-3-carboxamide], the IC50 lay in the range of 1 to 5 nM.

With `COc1cncc(-c2cc(-c3cc(Cl)ccc3F)nc3c2OCCN3)c1` [Example 25, 3-[6-(5-chloro-2-fluorophenyl)-2H,3H,4H-pyrido[3,2-b][1,4]oxazin-8-yl]-5-methoxypyridine], the IC50 was no more than 1 nM.

In the case of `COC(=O)c1cncc(-c2cc(-c3cc(Cl)ccc3F)nc3c2OCCN3)c1` [Example 19, Methyl 5-[6-(5-chloro-2-fluorophenyl)-2H,3H,4H-pyrido[3,2-b][1,4]oxazin-8-yl]pyridine-3-carboxylate], the IC50 was in the range of 1 to 5 nM.

On to `O=C(NCCN1CCNCC1)c1cncc(-c2cc(-c3cc(Cl)ccc3F)nc3c2OCCN3)c1` [Example 20, 5-[6-(5-chloro-2-fluorophenyl)-2H,3H,4H-pyrido[3,2-b][1,4]oxazin-8-yl]-N-[2-(piperazin-1-yl)ethyl]pyridine-3-carboxamide], for which the IC50 was in the range of 1 to 5 nM.

For the compound `Fc1ccc(Cl)cc1-c1cc(-c2cnc3[nH]ncc3c2)c2c(n1)NCCO2` [Example 10, 6-(5-chloro-2-fluorophenyl)-8-{1H-pyrazolo[3,4-b]pyridin-5-yl}-2H,3H,4H-pyrido[3,2-b][1,4]oxazine], the IC50 is no more than 1 nM.

On to `CN(CCC(=O)Nc1cncc(-c2cc(-c3cc(Cl)ccc3F)nc3c2OCCN3)c1)C1COC1` [Example 45, N-{5-[6-(5-chloro-2-fluorophenyl)-2H,3H,4H-pyrido[3,2-b][1,4]oxazin-8-yl]pyridin-3-yl}-3-[methyl(oxetan-3-yl)amino]propanamide], for which the IC50 was 1 to 5 nM.

`Cc1cccc(-c2cc(-c3cncc4ccccc34)c3c(n2)NCCO3)n1` [Example 3, 4-[6-(6-methylpyridin-2-yl)-2H,3H,4H-pyrido[3,2-b][1,4]oxazin-8-yl]isoquinoline]: the IC50 is 1 to 5 nM.

As for `CN1CCN(CCNC(=O)c2cncc(-c3cc(-c4cc(Cl)ccc4F)nc4c3OCCN4)c2)CC1` [Example 37, 5-[6-(5-chloro-2-fluorophenyl)-2H,3H,4H-pyrido[3,2-b][1,4]oxazin-8-yl]-N-[2-(4-methylpiperazin-1-yl)ethyl]pyridine-3-carboxamide], the IC50 was in the range of 1 to 5 nM.

With `O=C(CCCN1CCNCC1)Nc1cncc(-c2cc(-c3cc(Cl)ccc3F)nc3c2OCCN3)c1` [Example 33, N-{5-[6-(5-chloro-2-fluorophenyl)-2H,3H,4H-pyrido[3,2-b][1,4]oxazin-8-yl]pyridin-3-yl}-4-(piperazin-1-yl)butanamide], the IC50 fell in the range of 1 to 5 nM.

`COC(=O)CN(C)CCC(=O)Nc1cncc(-c2cc(-c3cc(Cl)ccc3F)nc3c2OCCN3)c1` [Example 48, Methyl 2-{[2-({5-[6-(5-chloro-2-fluorophenyl)-2H,3H,4H-pyrido[3,2-b][1,4]oxazin-8-yl]pyridin-3-yl}carbamoyl)ethyl](methyl)amino}acetate]: the IC50 is 5 to 10 nM.

Turning to `CNC(=O)c1cncc(-c2cc(-c3cc(Cl)ccc3F)nc3c2OCCN3)c1` [Example 7, 5-[6-(5-chloro-2-fluorophenyl)-2H,3H,4H-pyrido[3,2-b][1,4]oxazin-8-yl]-N-methylpyridine-3-carboxamide], the IC50 was 5 to 10 nM.

Turning to `CNCCNC(=O)c1cncc(-c2cc(-c3cc(Cl)ccc3F)nc3c2OCCN3)c1` [Example 23, 5-[6-(5-chloro-2-fluorophenyl)-2H,3H,4H-pyrido[3,2-b][1,4]oxazin-8-yl]-N-[2-(methylamino)ethyl]pyridine-3-carboxamide], the IC50 was in the range of 1 to 5 nM.

For the compound `Nc1cncc(-c2cc(-c3cc(Cl)ccc3F)nc3c2OCCN3)c1` [Example 5, 5-[6-(5-chloro-2-fluorophenyl)-2H,3H,4H-pyrido[3,2-b][1,4]oxazin-8-yl]pyridin-3-amine], the IC50 was 1 to 5 nM.

Consider `Fc1ccc(Cl)cc1-c1cc(-c2cncc(OCC3CCCO3)c2)c2c(n1)NCCO2` (centres unmarked) [Example 34, 3-[6-(5-chloro-2-fluorophenyl)-2H,3H,4H-pyrido[3,2-b][1,4]oxazin-8-yl]-5-[(oxolan-2-yl)methoxy]pyridine], for which the IC50 lay within 5 to 10 nM.

Take `CN(C)CCCNC(=O)c1cncc(-c2cc(-c3cc(Cl)ccc3F)nc3c2OCCN3)c1` [Example 21, 5-[6-(5-chloro-2-fluorophenyl)-2H,3H,4H-pyrido[3,2-b][1,4]oxazin-8-yl]-N-[3-(dimethylamino)propyl]pyridine-3-carboxamide]: the IC50 is no more than 1 nM.

For `Cc1cccc(-c2cc(-c3cnc4[nH]ncc4c3)c3c(n2)NCCO3)n1` [Example 35, 2-methyl-6-(8-{1H-pyrazolo[3,4-b]pyridin-5-yl}-2H,3H,4H-pyrido[3,2-b][1,4]oxazin-6-yl)pyridine], the IC50 lay in the range of 5 to 10 nM.

In the case of `CN1CCC(COc2cncc(-c3cc(-c4cc(Cl)ccc4F)nc4c3OCCN4)c2)CC1` [Example 42, 3-[6-(5-chloro-2-fluorophenyl)-2H,3H,4H-pyrido[3,2-b][1,4]oxazin-8-yl]-5-[(1-methylpiperidin-4-yl)methoxy]pyridine], the IC50 is 1 to 5 nM.

For the compound `CN1CCN(CCC(=O)Nc2cncc(-c3cc(-c4cc(Cl)ccc4F)nc4c3OCCN4)c2)C(=O)C1` [Example 47, N-{5-[6-(5-chloro-2-fluorophenyl)-2H,3H,4H-pyrido[3,2-b][1,4]oxazin-8-yl]pyridin-3-yl}-3-(4-methyl-2-oxopiperazin-1-yl)propanamide], the IC50 fell in the range of 5 to 10 nM.

For the compound `Cc1csc(-c2cc(-c3cncc4ccccc34)c3c(n2)NCCO3)n1` [Example 4, 4-[6-(4-methyl-1,3-thiazol-2-yl)-2H,3H,4H-pyrido[3,2-b][1,4]oxazin-8-yl]isoquinoline], the IC50 was 1 to 5 nM.

Regarding `O=C(CCN1CCCCC1)Nc1cncc(-c2cc(-c3cc(Cl)ccc3F)nc3c2OCCN3)c1` [Example 18, N-{5-[6-(5-chloro-2-fluorophenyl)-2H,3H,4H-pyrido[3,2-b][1,4]oxazin-8-yl]pyridin-3-yl}-3-(piperidin-1-yl)propanamide], the IC50 was no more than 1 nM.

Staying with this experiment, now noted: Table 13; comparative examples, same in vitro assay; read-out: ALK5 IC50.
As for `Oc1ccc(-c2cc(-c3cc(Cl)ccc3F)nc3c2OCCN3)cc1` [Example C2, 4-[6-(5-chloro-2-fluorophenyl)-2H,3H,4H-pyrido[3,2-b][1,4]oxazin-8-yl]phenol], the IC50 is 1710 nM.

With `COc1ccc(-c2cc(-c3cc(Cl)ccc3F)nc3c2OCCN3)cc1` [Example C1, 6-(5-chloro-2-fluorophenyl)-8-(4-methoxyphenyl)-2H,3H,4H-pyrido[3,2-b][1,4]oxazine], the IC50 came out at 10000 nM.

The experiment is the same for the next values; noted with them: summary statements in running text; read-out: IC50 / potency on ALK5.
Take `Oc1ccc(-c2cc(-c3cc(Cl)ccc3F)nc3c2OCCN3)cc1` [Example C2, 4-[6-(5-chloro-2-fluorophenyl)-2H,3H,4H-pyrido[3,2-b][1,4]oxazin-8-yl]phenol]: the IC50 was greater than 1700 nM.

For `COc1ccc(-c2cc(-c3cc(Cl)ccc3F)nc3c2OCCN3)cc1` [Example C1, 6-(5-chloro-2-fluorophenyl)-8-(4-methoxyphenyl)-2H,3H,4H-pyrido[3,2-b][1,4]oxazine], the IC50 was greater than 1700 nM.
